Publication PMC3973950, “Synthesis of 5-arylidine amino-1,3,4-thiadiazol-2-[(N-substituted benzyol)]sulphonamides endowed with potent antioxidants and anticancer activity induces growth inhibition in HEK293, BT474 and NCI-H226 cells” (Medicinal Chemistry Research, 2013)

How the values were obtained:
[1] = Lipid peroxidation inhibitory activity (egg lecithin liposomes, TBA); assay type: biochemical; settings: Conc. ± SD; standard ascorbic acid; read-out: IC50 inhibitory concentration, Lipid peroxidation
Experimental: Egg lecithin (3 mg/mL phosphate buffer, pH 7.4) was sonicated in an ultrasonic sonicator for 10 min to ensure proper liposome formation. Test samples or standard, ascorbic acid (100 μL) of different concentrations (10, 20, 30, 40 50 and 100 μg/mL) was added to liposome mixture (1 mL); the control was without test sample. Lipid peroxidation was induced by adding ferric chloride (10 μL, 400 mM) and L-ascorbic acid (10 μL, 200 mM). After incubation for 1 h at 37 °C, the reaction was stopped by adding hydrochloric acid (2 mL, 0.25 N) containing trichloroacetic acid (150 mg/mL), thiobarbituric acid (3.75 mg/mL) and butylated hydroxy anisole (0.50 mg/mL). The reaction mixture was subsequently boiled for 15 min, cooled and centrifuged at 1,000 rpm for 15 min, and the absorbance of the supernatant was measured at 532 nm (Duh and Yen, [1997]). The % inhibition at different concentrations was calculated by the following formula %Inhibition=[1-(Vt/Vc)]×100 where V t = mean absorption of test compound, V c = mean absorption of control.
The IC50 (nM/mL) value was derived from the % inhibition at different concentrations.

[2] = tested on: root meristem cells of Allium cepa; assay: In vitro antimitotic activity and cytogenetic analysis, Allium cepa meristem root model; assay type: cell-based; settings: compounds 1 mg/mL, PC (EMS) 2 × 10^−2 M; for MI (%) ± SEM (mitotic index): lower MI = higher activity, negative control 6.22
Summary of the method: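 Onion roots (about 2–2.5 cm, five bulbs per sample) exposed to compound at 1 mg/mL at 22 ± 1 °C, with distilled water as negative and EMS (2 × 10^−2 M) as positive control. After 24 h, orcein-stained root tips were scored for mitotic index, chromatin aberrations and micronuclei per 1,000 cells. Root length at 72 h served as the general toxicity index, expressed as percentage of controls.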

[3] = tested on: BT474 (breast cancer cell line); assay: In vitro cytotoxicity by MTT assay, BT474; assay type: cell-based; settings: Homo sapiens, 72 h, read-out: % cytotoxicity (100 − % cell survival) of BT474 cell line; for cytotoxicity at 0.005 µM: BT-474, 0.005 μM; for cytotoxicity at 0.015 µM: BT-474, 0.015 μM; for cytotoxicity at 0.045 µM: BT-474, 0.045 μM; for cytotoxicity at 0.13 µM: BT-474, 0.13 μM; for cytotoxicity at 0.41 µM: BT-474, 0.41 μM; for cytotoxicity at 1.23 µM: BT-474, 1.23 μM; for cytotoxicity at 3.7 µM: BT-474, 3.7 μM; for cytotoxicity at 11.11 µM: BT-474, 11.11 μM; for cytotoxicity at 33.33 µM: BT-474, 33.33 μM; for cytotoxicity at 100 µM: BT-474, 100 μM
Summary of the method: (§1)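 Monolayers seeded at […] (about 10,000 per well) were treated after 24 h with the synthesized compounds and incubated three days. Viability was taken from MTT reduction, with formazan measured at 490 nm.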

[4] = In vitro cytotoxicity by MTT assay, NCI-H226; assay type: cell-based; settings: human, NCI-H226 lung cancer cells, 0.015 μM, read-out: % Cytotoxicity (100 − % cell survival) of NCI-H226 cell line
Summary of the method: as §1

Row | SMILES | IC50 [1] | Aberrant cells (%) ± SEM [2] | Chromosome breaks (%) ± SEM [2] | MNC (‰) ± SEM (micronuclei per 1,000 cells) [2] | Polar deviations (%) ± SEM [2] | Stickiness (%) ± SEM [2] | MI (%) ± SEM (mitotic index) [2] | cytotoxicity at 0.005 µM [3] | cytotoxicity at 0.015 µM [3] | cytotoxicity at 0.045 µM [3] | cytotoxicity at 0.13 µM [3] | cytotoxicity at 0.41 µM [3] | cytotoxicity at 1.23 µM [3] | cytotoxicity at 3.7 µM [3] | cytotoxicity at 11.11 µM [3] | cytotoxicity at 33.33 µM [3] | cytotoxicity at 100 µM [3] | cytotoxicity at 72 h, 0.015 µM [4]
1 | COc1ccc(C=Nc2nnc(S(=O)(=O)NC(=O)c3ccccc3)s2)cc1 [Compound 9d, N-({5-[(4-Methoxybenzylidene)amino]-1,3,4-thiadiazol-2-yl}sulfonyl)benzamide] | 164 ± 14.6 µM | 25.33 ± 9.42% | 0.96 ± 0.46% | 0.51 ± 0.17 ‰ | 9.15 ± 6.92% | 14.48 ± 2.52% | 2.34 ± 0.19% | 33.3% | 33.4% | 33.5% | 34% | 34.2% | 36.8% | 36.8% | 37.4% | 38% | 39.4% | 36.3%
2 | O=C(NS(=O)(=O)c1nnc(N=Cc2ccccc2)s1)c1ccccc1 [Compound 9a, N-{[5-(Benzylidenamino)-1,3,4-thiadiazol-2-yl]sulphonyl} benzamide] | 122 ± 18.6 µM | 19.28 ± 5.22% | 6.22 ± 1.02% | 0.34 ± 0.15 ‰ | 8.62 ± 2.16% | 6.64 ± 2.38% | 3.22 ± 0.16% | 35.3% | 35.8% | 36.4% | 37% | 38% | 39% | 40.2% | 40.6% | 41.5% | 66% | 34.8%
